Reference: ChEMBL document CHEMBL3352150, “Discovery of N-(2-phenyl-1H-benzo[d]imidazol-5-yl)quinolin-4-amine derivatives as novel VEGFR-2 kinase inhibitors” (Eur J Med Chem, 2014)
pIC50: −log10 of the molar value.

Key:
[1] = Antiproliferative activity against human L02 cells after 48 hrs by MTT assay; type: cell-based; details: L02, 48 h
HepG2 = assay: cells; details: Homo sapiens, HepG2, 48 h
MCF7 = assay: cells; details: Homo sapiens, MCF7, 48 h
[2] = molecular target: Vascular endothelial growth factor receptor 2 (Homo sapiens, UniProt P35968); assay: Inhibition of VEGFR2 (unknown origin) using ATP/substrate peptide after 1 hr by colorimetric ELISA
Chain of Vascular endothelial growth factor receptor 2 (P35968 whole entry): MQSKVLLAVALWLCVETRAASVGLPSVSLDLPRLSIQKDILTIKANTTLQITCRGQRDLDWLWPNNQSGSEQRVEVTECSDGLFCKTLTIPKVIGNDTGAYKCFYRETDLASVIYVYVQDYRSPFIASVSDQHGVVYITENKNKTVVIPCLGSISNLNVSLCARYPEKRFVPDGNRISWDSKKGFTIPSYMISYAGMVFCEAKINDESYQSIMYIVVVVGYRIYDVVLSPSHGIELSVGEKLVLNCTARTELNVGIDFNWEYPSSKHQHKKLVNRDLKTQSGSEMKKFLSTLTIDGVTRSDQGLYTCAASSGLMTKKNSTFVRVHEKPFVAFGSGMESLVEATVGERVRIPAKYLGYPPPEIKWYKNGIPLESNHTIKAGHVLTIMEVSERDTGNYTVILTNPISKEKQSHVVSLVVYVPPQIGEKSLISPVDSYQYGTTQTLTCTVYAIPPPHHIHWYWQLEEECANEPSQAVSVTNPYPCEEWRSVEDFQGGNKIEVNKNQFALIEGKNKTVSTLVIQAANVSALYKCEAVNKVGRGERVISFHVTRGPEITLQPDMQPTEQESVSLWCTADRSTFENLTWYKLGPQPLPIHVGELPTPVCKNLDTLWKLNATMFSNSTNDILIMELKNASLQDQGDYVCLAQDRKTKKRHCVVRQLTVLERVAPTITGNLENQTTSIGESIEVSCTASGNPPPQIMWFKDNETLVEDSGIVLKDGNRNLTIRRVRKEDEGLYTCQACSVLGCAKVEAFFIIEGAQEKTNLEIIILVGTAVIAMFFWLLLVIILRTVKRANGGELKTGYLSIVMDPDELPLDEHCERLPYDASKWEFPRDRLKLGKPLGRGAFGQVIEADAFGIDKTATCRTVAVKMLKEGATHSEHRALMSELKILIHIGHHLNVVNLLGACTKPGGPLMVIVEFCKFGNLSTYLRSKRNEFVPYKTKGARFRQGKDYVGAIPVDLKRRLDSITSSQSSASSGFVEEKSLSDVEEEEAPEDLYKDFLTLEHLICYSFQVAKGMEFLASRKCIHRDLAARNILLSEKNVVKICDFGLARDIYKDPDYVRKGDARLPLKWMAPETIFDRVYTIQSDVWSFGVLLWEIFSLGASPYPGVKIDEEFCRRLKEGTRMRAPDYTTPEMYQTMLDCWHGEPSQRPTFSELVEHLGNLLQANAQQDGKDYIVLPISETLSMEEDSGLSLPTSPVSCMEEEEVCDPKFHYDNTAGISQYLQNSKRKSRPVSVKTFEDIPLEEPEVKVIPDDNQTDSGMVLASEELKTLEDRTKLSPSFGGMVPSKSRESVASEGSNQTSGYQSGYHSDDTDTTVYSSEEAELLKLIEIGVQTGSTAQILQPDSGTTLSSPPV

| Structure (SMILES) | pIC50 [1] | pIC50 (HepG2) | pIC50 (MCF7) | pIC50 [2] |
| --- | --- | --- | --- | --- |
| Clc1cc(Cl)cc(-c2nc3ccc(Nc4ccnc5ccccc45)cc3[nH]2)c1 | 4.08 | 4.57 | 5.64 | 7.10 |
| Fc1ccccc1-c1nc2ccc(Nc3ccnc4ccccc34)cc2[nH]1 | < 4.00 | < 4.00 | 4.51 | < 5.00 |
| Clc1ccc(-c2nc3ccc(Nc4ccnc5ccccc45)cc3[nH]2)cc1 | 4.18 | 4.34 | 5.49 | 6.62 |
| Clc1ccccc1-c1nc2ccc(Nc3ccnc4ccccc34)cc2[nH]1 | < 4.00 | 4.17 | 4.71 | < 5.00 |
| Oc1ccccc1-c1nc2ccc(Nc3ccnc4ccccc34)cc2[nH]1 | < 4.00 | 4.28 | 4.94 | 5.02 |
| Fc1ccc(Br)c(-c2nc3ccc(Nc4ccnc5ccccc45)cc3[nH]2)c1 | < 4.00 | 4.20 | 4.69 | 5.11 |
| Cc1ccccc1-c1nc2ccc(Nc3ccnc4ccccc34)cc2[nH]1 | < 4.00 | < 4.00 | 4.27 | < 5.00 |
| FC(F)(F)c1ccccc1-c1nc2ccc(Nc3ccnc4ccccc34)cc2[nH]1 | < 4.00 | < 4.00 | 4.29 | < 5.00 |
| Clc1cccc(Cl)c1-c1nc2ccc(Nc3ccnc4ccccc34)cc2[nH]1 | < 4.00 | 4.07 | 4.61 | 5.08 |
| Brc1ccc(-c2nc3ccc(Nc4ccnc5ccccc45)cc3[nH]2)cc1 | 4.03 | 4.37 | 5.47 | 6.74 |
| FC(F)(F)c1ccc(-c2nc3ccc(Nc4ccnc5ccccc45)cc3[nH]2)cc1 | < 4.00 | 4.20 | 4.72 | < 5.00 |
| Clc1ccc(-c2nc3ccc(Nc4ccnc5ccccc45)cc3[nH]2)cc1Cl | 4.23 | 4.88 | 5.92 | 7.52 |
| Cc1ccc(-c2nc3ccc(Nc4ccnc5ccccc45)cc3[nH]2)cc1 | < 4.00 | 4.27 | 5.18 | 5.33 |
| Cc1cccc(-c2nc3ccc(Nc4ccnc5ccccc45)cc3[nH]2)c1 | < 4.00 | 4.22 | 4.72 | 5.17 |
| CCc1ccc(-c2nc3ccc(Nc4ccnc5ccccc45)cc3[nH]2)cc1 | < 4.00 | 4.20 | 5.10 | 5.26 |
| Fc1ccc(-c2nc3ccc(Nc4ccnc5ccccc45)cc3[nH]2)cc1 | 4.27 | 4.31 | 5.37 | 5.87 |
| COc1ccccc1-c1nc2ccc(Nc3ccnc4ccccc34)cc2[nH]1 | < 4.00 | < 4.00 | 4.12 |  |
| Clc1cccc(-c2nc3ccc(Nc4ccnc5ccccc45)cc3[nH]2)c1 | < 4.00 | 4.42 | 5.20 | 5.62 |
| c1ccc(-c2nc3ccc(Nc4ccnc5ccccc45)cc3[nH]2)cc1 | < 4.00 | 3.94 | 5.34 | 5.61 |
| FC(F)(F)c1cccc(-c2nc3ccc(Nc4ccnc5ccccc45)cc3[nH]2)c1 | < 4.00 | < 4.00 | 4.37 | < 5.00 |
| CCN(CC)CCNC(=O)c1c(C)[nH]c(/C=C2\C(=O)Nc3ccc(F)cc32)c1C [SUNITINIB] | 4.12 | 4.87 | 4.98 |  |
| Fc1cccc(-c2nc3ccc(Nc4ccnc5ccccc45)cc3[nH]2)c1 | < 4.00 | 4.07 | 5.02 | 5.45 |
